The test system of test [1] is ER-positive breast cancer. The conditions noted are these: preclinical studies, in vivo and in vitro; cited from earlier work.
For test [2], the system named is breast cancer cell line ZR-75-1. Put plainly: Inhibition of proliferation of breast cancer cell line ZR-75-1 (CellTiter-Glo). In kind it is cell-based. The conditions noted are these: Homo sapiens, 240 h, proliferation of ZR-75-1 cells, 10 days of incubation, read-out: IC50 (KAT6A).
Another test deals with T1, KAT6A (Homo sapiens, UniProt Q92794).
T1 construct: purchased ACTIVE MOTIF 81223
Put plainly: Inhibition of human KAT enzymes, radioisotope method: KAT6A. In kind it is biochemical. The conditions noted are these: KAT6A (488-778). The text has this: (§1) Test Example 2: Selective Inhibitory Effects of Test Compounds on Human KAT6 Enzymes (Radioisotope Method)
(§2) • 1. KAT6A (ACTIVE MOTIF, Cat. No. 81223) • 2. KAT5 (BPS, Cat. No. 79422) • 3. KAT7 (ACTIVE MOTIF, Cat. No. 31889) • 4. KAT6B (ACTIVE MOTIF, Cat. No. 81224) • 5. Acetyl coenzyme A, [Acetyl-^3H, 250 μCi (9.25 MBq](PEIRKIN4 ELMER, Cat. No. NET290250UC) • 6. Acetyl coenzyme A (CAYMVAN, Cat. No. 16160) • 7. 384-well Flashplate (Perkin Elmer, Cat. No. SMP410A001PK) • 8. Garcinol (MCE, Cat. No. HY-107569) • 9. Automatic microplate pipetting system (Precision, PRC384U, BioTek) • 10. Ultrasonic nanoliter liquid handling system (Echo 650 Liquid Handler, Echo 650, Labcyte) • 11. Centrifuge (Avanti J-15R, Beckman Coulter) • 12. Liquid scintillation counter (Microplate Counter, Microbeta2, Perkin Elmer)
(§3) • 1. For KAT6A and KAT7, a 1× assay buffer was prepared as follows: 10 mM Tris-HCl pH 8.0, 0.01% Tween-20, and 1 mM DTT; for KAT6B and KAT5, a 1× assay buffer was prepared as follows: 50 mM Tris-HCl pH 8.0, 0.05% Tween-20, and 1 mM DTT. • 2. Compound preparation: For KAT6A, KAT6B, and KAT7, the final concentration of the compounds started at 1 μM, followed by a 5-fold serial dilution across a total of 7 concentration gradients; for KAT5, the final concentration of the compounds started at 10 μM, followed by a 5-fold serial dilution across a total of 7 concentration gradients. • 3. Substrate reaction solution preparation: The mixed substrates of H4 peptide and [3H]acetyl coenzyme A at final concentrations were prepared using the respective 1× assay buffers, as shown in Table 4.
(§4) • 1. The enzyme solution was transferred to 384-well reaction plates at 10 μL/well. For each negative control well, 10 μL of the 1× assay buffer was transferred. The plates were then centrifuged at 1000 RPM for 1 min and incubated at room temperature for 15 min. • 2. The substrate reaction solution was added at 10 μL/well, and the plates were centrifuged at 1000 RPM for 1 min to start the reaction. • 3. The samples for KAT6A, KAT6B, KAT7, KAT8, and KAT5 were then incubated at room temperature for 60 min, 120 min, 45 min, 60 min, and 120 min, respectively. • 4. Stop solution preparation: A stop solution was prepared by diluting 50 µM cold Ac-CoA in 1× buffer. • 5. The stop solution was added at 10 μL/well, and the plates were centrifuged at […] for 1 min to stop the reaction. • 6. The mixtures in the reaction plates were transferred at 25 μL/well to new plates (Streptavidin FlashPlate HTS PLUS, High Capacity, 384-well). • 7. The plates were incubated at room temperature for at least 60 min and then • 8. read using MicroBeta2.
(§5) Raw data were obtained in EXCEL, and the inhibition rates were calculated:
(§6) [formula] [formula] • Max signal: reaction signal from enzyme and substrate; • Sample signal: signal from sample; • Min signal: signal from substrate only (negative control).
(§7) The inhibition rate data were imported into XLFit Excel, and IC50 values were obtained using formula (2):
(§8) [formula] [formula] • Top: value of the top plateau of the fitted regression curve; • Bottom: value of the bottom plateau of the fitted regression curve; • HillSlope: slope of the fitted regression curve.
(§9) The IC50 value was substituted into formula (3) to obtain the enzymatic activity inhibition constant Ki:
(§10) [formula] • [S]: substrate concentration; Km: Michaelis constant.

In the next test the target is T2, KAT6B (Homo sapiens, UniProt Q8WYB5).
T2 construct: purchased ACTIVE MOTIF 81224
Briefly: Inhibition of human KAT enzymes, radioisotope method: KAT6B. In kind it is biochemical. The conditions noted are these: KAT6B (718-1008).
Text: as §1, §2, §3, §4, §5, §6, §7, §8, §9, §10

Another test has as its target T3, KAT5 (Homo sapiens, UniProt Q92993).
T3 construct: purchased BPS 79422
Briefly: Inhibition of human KAT enzymes, radioisotope method: KAT5. It counts as biochemical. The conditions noted are these: for pKi: KAT5 (full-length), radioisotope method; for KAT5/ KAT6A / KAT5/ KAT6B: selectivity, ratio of Ki.
Text: as §1, §2, §3, §4, §5, §6, §7, §8, §9, §10

The target of the next test is T4, KAT7 (Homo sapiens, UniProt O95251).
T4 construct: purchased ACTIVE MOTIF 31889
Briefly: Inhibition of human KAT enzymes, radioisotope method: KAT7. It counts as biochemical. The conditions noted are these: for pKi: KAT7 (full-length), radioisotope method; for KAT7/ KAT6A / KAT7/ KAT6B: selectivity, ratio of Ki.
Text: as §1, §2, §3, §4, §5, §6, §7, §8, §9, §10

The structures appear in SMILES notation. pIC50, pKi: −log10 of the molar value.

T3 sequence (Q92993 whole entry): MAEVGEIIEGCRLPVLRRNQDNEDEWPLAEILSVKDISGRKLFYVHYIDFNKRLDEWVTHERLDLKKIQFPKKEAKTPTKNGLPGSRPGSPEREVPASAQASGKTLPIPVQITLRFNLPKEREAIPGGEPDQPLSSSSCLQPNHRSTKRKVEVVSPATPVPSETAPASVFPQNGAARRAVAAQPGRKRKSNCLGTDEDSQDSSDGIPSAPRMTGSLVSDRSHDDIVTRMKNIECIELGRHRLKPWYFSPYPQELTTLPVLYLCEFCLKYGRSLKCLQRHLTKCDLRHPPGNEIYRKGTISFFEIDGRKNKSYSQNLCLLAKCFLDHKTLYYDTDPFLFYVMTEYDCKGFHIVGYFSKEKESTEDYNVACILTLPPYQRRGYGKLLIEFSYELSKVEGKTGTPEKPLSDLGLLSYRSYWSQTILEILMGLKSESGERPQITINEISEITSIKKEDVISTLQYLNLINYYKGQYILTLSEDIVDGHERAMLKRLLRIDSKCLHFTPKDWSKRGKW
T4 sequence (O95251 whole entry): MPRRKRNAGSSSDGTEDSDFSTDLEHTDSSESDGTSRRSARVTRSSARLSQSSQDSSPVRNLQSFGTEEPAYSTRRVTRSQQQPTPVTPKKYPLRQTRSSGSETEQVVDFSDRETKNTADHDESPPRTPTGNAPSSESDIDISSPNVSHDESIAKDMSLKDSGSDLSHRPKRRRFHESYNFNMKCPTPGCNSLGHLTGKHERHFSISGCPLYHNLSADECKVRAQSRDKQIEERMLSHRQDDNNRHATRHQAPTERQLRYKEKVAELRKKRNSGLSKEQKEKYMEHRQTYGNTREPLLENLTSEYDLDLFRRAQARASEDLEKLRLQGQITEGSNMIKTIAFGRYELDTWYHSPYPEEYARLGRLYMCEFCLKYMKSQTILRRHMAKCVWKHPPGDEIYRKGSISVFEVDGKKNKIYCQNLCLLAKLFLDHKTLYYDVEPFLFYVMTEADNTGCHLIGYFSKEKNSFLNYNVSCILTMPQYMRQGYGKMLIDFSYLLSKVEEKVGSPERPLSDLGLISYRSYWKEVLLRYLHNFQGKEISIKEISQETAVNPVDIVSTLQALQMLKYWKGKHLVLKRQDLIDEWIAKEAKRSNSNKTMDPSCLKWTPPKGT
T2 sequence (Q8WYB5 whole entry): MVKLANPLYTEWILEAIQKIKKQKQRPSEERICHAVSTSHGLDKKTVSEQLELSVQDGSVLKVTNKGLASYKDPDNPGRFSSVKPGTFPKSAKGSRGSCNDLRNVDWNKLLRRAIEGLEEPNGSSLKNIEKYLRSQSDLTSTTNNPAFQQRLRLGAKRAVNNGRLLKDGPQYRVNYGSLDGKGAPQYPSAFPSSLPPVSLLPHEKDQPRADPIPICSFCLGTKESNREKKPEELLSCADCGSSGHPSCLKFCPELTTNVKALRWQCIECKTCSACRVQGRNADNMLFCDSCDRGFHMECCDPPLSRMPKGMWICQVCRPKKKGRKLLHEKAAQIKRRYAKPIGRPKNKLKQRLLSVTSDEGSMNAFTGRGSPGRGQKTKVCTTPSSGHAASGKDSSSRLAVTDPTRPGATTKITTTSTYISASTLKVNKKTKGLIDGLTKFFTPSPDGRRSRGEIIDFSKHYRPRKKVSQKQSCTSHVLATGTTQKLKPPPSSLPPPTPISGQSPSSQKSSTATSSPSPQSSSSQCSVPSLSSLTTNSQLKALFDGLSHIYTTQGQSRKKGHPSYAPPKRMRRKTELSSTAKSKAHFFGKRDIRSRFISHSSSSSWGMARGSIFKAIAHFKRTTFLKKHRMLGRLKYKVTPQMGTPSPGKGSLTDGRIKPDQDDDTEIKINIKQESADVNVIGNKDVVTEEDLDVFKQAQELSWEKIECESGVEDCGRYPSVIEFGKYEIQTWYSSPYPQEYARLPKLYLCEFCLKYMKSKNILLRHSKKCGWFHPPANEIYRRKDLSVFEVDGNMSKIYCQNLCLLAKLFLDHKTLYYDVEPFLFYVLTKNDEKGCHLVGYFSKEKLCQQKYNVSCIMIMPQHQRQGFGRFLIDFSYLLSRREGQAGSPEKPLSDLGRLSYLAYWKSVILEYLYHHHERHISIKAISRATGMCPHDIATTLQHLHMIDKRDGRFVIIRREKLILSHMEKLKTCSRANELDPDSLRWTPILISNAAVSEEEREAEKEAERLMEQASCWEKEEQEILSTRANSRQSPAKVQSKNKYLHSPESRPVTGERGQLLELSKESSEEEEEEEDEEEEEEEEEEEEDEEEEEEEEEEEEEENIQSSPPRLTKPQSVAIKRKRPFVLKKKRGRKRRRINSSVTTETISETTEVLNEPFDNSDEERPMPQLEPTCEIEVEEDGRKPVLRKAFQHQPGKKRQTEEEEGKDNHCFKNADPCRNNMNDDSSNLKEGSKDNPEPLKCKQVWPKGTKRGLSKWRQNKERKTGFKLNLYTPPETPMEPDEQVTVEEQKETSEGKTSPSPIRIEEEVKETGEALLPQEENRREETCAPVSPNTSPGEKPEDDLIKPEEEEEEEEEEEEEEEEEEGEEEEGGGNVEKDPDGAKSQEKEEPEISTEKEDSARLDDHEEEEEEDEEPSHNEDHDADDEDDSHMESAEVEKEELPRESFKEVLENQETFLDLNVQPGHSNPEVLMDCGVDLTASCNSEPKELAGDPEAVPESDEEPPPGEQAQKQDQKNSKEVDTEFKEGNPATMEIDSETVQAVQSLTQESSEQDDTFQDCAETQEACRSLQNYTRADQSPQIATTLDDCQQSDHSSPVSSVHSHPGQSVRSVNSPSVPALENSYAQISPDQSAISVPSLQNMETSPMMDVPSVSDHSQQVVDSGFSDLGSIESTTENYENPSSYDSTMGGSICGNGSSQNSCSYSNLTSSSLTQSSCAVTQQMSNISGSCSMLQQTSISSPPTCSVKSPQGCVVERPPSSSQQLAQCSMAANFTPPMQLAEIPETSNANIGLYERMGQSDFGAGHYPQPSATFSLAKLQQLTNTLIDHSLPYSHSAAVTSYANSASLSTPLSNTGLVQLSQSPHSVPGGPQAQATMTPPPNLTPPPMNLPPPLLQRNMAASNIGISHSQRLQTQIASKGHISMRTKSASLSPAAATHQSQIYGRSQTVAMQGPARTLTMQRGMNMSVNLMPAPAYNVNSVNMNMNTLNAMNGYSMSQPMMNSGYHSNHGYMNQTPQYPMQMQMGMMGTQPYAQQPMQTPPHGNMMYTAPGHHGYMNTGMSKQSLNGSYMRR

As for `COc1cccc(OC)c1S(=O)(=O)Nc1noc2cc(Cn3cccn3)cc(OC)c12` [CTx-648], in test [1], the “anti-tumor activity against ER-positive breast cancer” value was “excellent in vivo and in vitro anti-tumor activity”.
Consider `COc1ccc2c(c1S(=O)(=O)Nc1noc3cc(Cn4cccn4)c(F)c(OC)c13)OCCN2C(C)=O` [Compound 110, N-(6-((1H-Pyrazol-1-yl)methyl)-5-fluoro-4-methoxybenzo[d]isoxazol-3-yl)-4-acetyl-7-methoxy-3,4-dihydro-2H-benzo[b][1,4]oxazine-8-sulfonamide], for which the pIC50 in test [2] is 8.70 to 9.30. At KAT6A, the pKi was 9.54. This compound also gave a pKi at KAT6B of 8.80. Moreover, on KAT5, the pKi is 5.94, the “KAT5/ KAT6A” value is listed as 3967 and the “KAT5/ KAT6B” value was 719. In addition, at KAT7, the pKi was 7.19, the “KAT7/ KAT6A” value is reported as 223 and the “KAT7/ KAT6B” value is on record as 40.
Take `COc1ccc2c(c1S(=O)(=O)Nc1noc3cc(Cn4cccn4)c(F)c(OC)c13)OCCN2S(C)(=O)=O` [Compound 121, N-(6-((1H-Pyrazol-1-yl)methyl)-5-fluoro-4-methoxybenzo[d]isoxazol-3-yl)-7-methoxy-4-(methylsulfonyl)-3,4-dihydro-2H-benzo[b][1,4]oxazine-8-sulfonamide]: the pIC50 in test [2] is 8.00 to 8.70. At KAT6A, this compound gave a pKi of 9.55. The compound further gave a pKi on KAT6B of 9.05. Moreover, at KAT5, the pKi is 6.24, the “KAT5/ KAT6A” value was 2061 and the “KAT5/ KAT6B” value came to 641. For the same compound, on KAT7, the pKi is 7.02, the “KAT7/ KAT6A” value came out at 343 and the “KAT7/ KAT6B” value worked out at 107.

Source of the values: patent US20260174778A1, “SULFONAMIDE COMPOUND, AND PREPARATION METHOD THEREFOR AND USE THEREOF” (SHANGHAI HENLIUS BIOTECH, INC., priority 2023, published 2026).
